Assay: Stability of cannabinoid compounds and Vitamin E components in Beverage 1 (AB White) by LCMSMS
Assay type: physicochemical
Settings: for Stability of Plant-Derived Cannabinoid Compounds in AB White, 8° C.: AB White stored at 8° C.; for Stability of Plant-Derived Cannabinoid Compounds in AB White, 21-25° C.: AB White stored at 21-25° C.
Description: The stability of the plant-derived cannabinoid compounds and Vitamin E components of the beverage stored 8° C. and at room temperature (21-25° C.) were monitored, over a period of 570 days via Liquid Chromatography-tandem Mass Spectrometry [LCMSMS, Agilent 6590, C18, 3×50 mm, 2.7 m (Agilent InfinityLab Poroshell 120 EC-C18), Electrospray Ionization detector]. The LCMSMS was calibrated for 0-1000 ng/ml cannabinoids with the same resin material used in the preparation of the concentrates. At each time period, 100 ml of beverage was diluted with 10 ml of methanol and injected into the LCMSMS for analysis.

C=C(C)[C@@H]1CCC(C)=C[C@H]1c1c(O)cc(CCCCC)c(C(=O)O)c1O [CBDA, cannabidiolic acid]
Stability of Plant-Derived Cannabinoid Compounds in AB White, 8° C. (0 days): 1.75 µg/mL | Stability of Plant-Derived Cannabinoid Compounds in AB White, 8° C. (1 days): 1.72 µg/mL | Stability of Plant-Derived Cannabinoid Compounds in AB White, 8° C. (2 days): 1.76 µg/mL | Stability of Plant-Derived Cannabinoid Compounds in AB White, 8° C. (3 days): 1.76 µg/mL | Stability of Plant-Derived Cannabinoid Compounds in AB White, 8° C. (5 days): 1.71 µg/mL | Stability of Plant-Derived Cannabinoid Compounds in AB White, 8° C. (8 days): 1.75 µg/mL | Stability of Plant-Derived Cannabinoid Compounds in AB White, 8° C. (9 days): 1.73 µg/mL | Stability of Plant-Derived Cannabinoid Compounds in AB White, 8° C. (10 days): 1.76 µg/mL | Stability of Plant-Derived Cannabinoid Compounds in AB White, 8° C. (11 days): 1.70 µg/mL | Stability of Plant-Derived Cannabinoid Compounds in AB White, 8° C. (12 days): 1.71 µg/mL | Stability of Plant-Derived Cannabinoid Compounds in AB White, 8° C. (15 days): 1.74 µg/mL | Stability of Plant-Derived Cannabinoid Compounds in AB White, 8° C. (16 days): 1.73 µg/mL | Stability of Plant-Derived Cannabinoid Compounds in AB White, 8° C. (17 days): 1.73 µg/mL | Stability of Plant-Derived Cannabinoid Compounds in AB White, 8° C. (18 days): 1.76 µg/mL | Stability of Plant-Derived Cannabinoid Compounds in AB White, 8° C. (19 days): 1.74 µg/mL | Stability of Plant-Derived Cannabinoid Compounds in AB White, 8° C. (22 days): 1.70 µg/mL | Stability of Plant-Derived Cannabinoid Compounds in AB White, 8° C. (23 days): 1.76 µg/mL | Stability of Plant-Derived Cannabinoid Compounds in AB White, 8° C. (24 days): 1.72 µg/mL | Stability of Plant-Derived Cannabinoid Compounds in AB White, 8° C. (25 days): 1.75 µg/mL | Stability of Plant-Derived Cannabinoid Compounds in AB White, 8° C. (26 days): 1.75 µg/mL | Stability of Plant-Derived Cannabinoid Compounds in AB White, 8° C. (29 days): 1.75 µg/mL | Stability of Plant-Derived Cannabinoid Compounds in AB White, 8° C. (30 days): 1.76 µg/mL | Stability of Plant-Derived Cannabinoid Compounds in AB White, 8° C. (60 days): 1.70 µg/mL | Stability of Plant-Derived Cannabinoid Compounds in AB White, 8° C. (90 days): 1.70 µg/mL | Stability of Plant-Derived Cannabinoid Compounds in AB White, 8° C. (120 days): 1.67 µg/mL | Stability of Plant-Derived Cannabinoid Compounds in AB White, 8° C. (150 days): 1.71 µg/mL | Stability of Plant-Derived Cannabinoid Compounds in AB White, 8° C. (180 days): 1.75 µg/mL | Stability of Plant-Derived Cannabinoid Compounds in AB White, 8° C. (210 days): 1.68 µg/mL | Stability of Plant-Derived Cannabinoid Compounds in AB White, 8° C. (240 days): 1.70 µg/mL | Stability of Plant-Derived Cannabinoid Compounds in AB White, 8° C. (270 days): 1.70 µg/mL | Stability of Plant-Derived Cannabinoid Compounds in AB White, 8° C. (300 days): 1.69 µg/mL | Stability of Plant-Derived Cannabinoid Compounds in AB White, 8° C. (330 days): 1.70 µg/mL | Stability of Plant-Derived Cannabinoid Compounds in AB White, 8° C. (360 days): 1.70 µg/mL | Stability of Plant-Derived Cannabinoid Compounds in AB White, 8° C. (390 days): 1.70 µg/mL | Stability of Plant-Derived Cannabinoid Compounds in AB White, 8° C. (420 days): 1.67 µg/mL | Stability of Plant-Derived Cannabinoid Compounds in AB White, 8° C. (450 days): 1.68 µg/mL | Stability of Plant-Derived Cannabinoid Compounds in AB White, 8° C. (480 days): 1.66 µg/mL | Stability of Plant-Derived Cannabinoid Compounds in AB White, 8° C. (510 days): 1.61 µg/mL | Stability of Plant-Derived Cannabinoid Compounds in AB White, 8° C. (540 days): 1.61 µg/mL | Stability of Plant-Derived Cannabinoid Compounds in AB White, 8° C. (570 days): 1.60 µg/mL | Stability of Plant-Derived Cannabinoid Compounds in AB White, 21-25° C. (0 days): 1.75 µg/mL | Stability of Plant-Derived Cannabinoid Compounds in AB White, 21-25° C. (1 days): 1.76 µg/mL | Stability of Plant-Derived Cannabinoid Compounds in AB White, 21-25° C. (2 days): 1.70 µg/mL | Stability of Plant-Derived Cannabinoid Compounds in AB White, 21-25° C. (3 days): 1.71 µg/mL | Stability of Plant-Derived Cannabinoid Compounds in AB White, 21-25° C. (5 days): 1.69 µg/mL | Stability of Plant-Derived Cannabinoid Compounds in AB White, 21-25° C. (8 days): 1.77 µg/mL | Stability of Plant-Derived Cannabinoid Compounds in AB White, 21-25° C. (9 days): 1.74 µg/mL | Stability of Plant-Derived Cannabinoid Compounds in AB White, 21-25° C. (10 days): 1.73 µg/mL | Stability of Plant-Derived Cannabinoid Compounds in AB White, 21-25° C. (11 days): 1.76 µg/mL | Stability of Plant-Derived Cannabinoid Compounds in AB White, 21-25° C. (12 days): 1.74 µg/mL | Stability of Plant-Derived Cannabinoid Compounds in AB White, 21-25° C. (15 days): 1.69 µg/mL | Stability of Plant-Derived Cannabinoid Compounds in AB White, 21-25° C. (16 days): 1.75 µg/mL | Stability of Plant-Derived Cannabinoid Compounds in AB White, 21-25° C. (17 days): 1.72 µg/mL | Stability of Plant-Derived Cannabinoid Compounds in AB White, 21-25° C. (18 days): 1.75 µg/mL | Stability of Plant-Derived Cannabinoid Compounds in AB White, 21-25° C. (19 days): 1.70 µg/mL | Stability of Plant-Derived Cannabinoid Compounds in AB White, 21-25° C. (22 days): 1.70 µg/mL | Stability of Plant-Derived Cannabinoid Compounds in AB White, 21-25° C. (23 days): 1.73 µg/mL | Stability of Plant-Derived Cannabinoid Compounds in AB White, 21-25° C. (24 days): 1.70 µg/mL | Stability of Plant-Derived Cannabinoid Compounds in AB White, 21-25° C. (25 days): 1.73 µg/mL | Stability of Plant-Derived Cannabinoid Compounds in AB White, 21-25° C. (26 days): 1.75 µg/mL | Stability of Plant-Derived Cannabinoid Compounds in AB White, 21-25° C. (29 days): 1.76 µg/mL | Stability of Plant-Derived Cannabinoid Compounds in AB White, 21-25° C. (30 days): 1.71 µg/mL | Stability of Plant-Derived Cannabinoid Compounds in AB White, 21-25° C. (60 days): 1.68 µg/mL | Stability of Plant-Derived Cannabinoid Compounds in AB White, 21-25° C. (90 days): 1.67 µg/mL | Stability of Plant-Derived Cannabinoid Compounds in AB White, 21-25° C. (120 days): 1.66 µg/mL | Stability of Plant-Derived Cannabinoid Compounds in AB White, 21-25° C. (150 days): 1.64 µg/mL | Stability of Plant-Derived Cannabinoid Compounds in AB White, 21-25° C. (180 days): 1.69 µg/mL | Stability of Plant-Derived Cannabinoid Compounds in AB White, 21-25° C. (210 days): 1.73 µg/mL | Stability of Plant-Derived Cannabinoid Compounds in AB White, 21-25° C. (240 days): 1.73 µg/mL | Stability of Plant-Derived Cannabinoid Compounds in AB White, 21-25° C. (270 days): 1.71 µg/mL | Stability of Plant-Derived Cannabinoid Compounds in AB White, 21-25° C. (300 days): 1.73 µg/mL | Stability of Plant-Derived Cannabinoid Compounds in AB White, 21-25° C. (330 days): 1.72 µg/mL | Stability of Plant-Derived Cannabinoid Compounds in AB White, 21-25° C. (360 days): 1.69 µg/mL | Stability of Plant-Derived Cannabinoid Compounds in AB White, 21-25° C. (390 days): 1.67 µg/mL | Stability of Plant-Derived Cannabinoid Compounds in AB White, 21-25° C. (420 days): 1.64 µg/mL | Stability of Plant-Derived Cannabinoid Compounds in AB White, 21-25° C. (450 days): 1.70 µg/mL | Stability of Plant-Derived Cannabinoid Compounds in AB White, 21-25° C. (480 days): 1.63 µg/mL | Stability of Plant-Derived Cannabinoid Compounds in AB White, 21-25° C. (510 days): 1.66 µg/mL | Stability of Plant-Derived Cannabinoid Compounds in AB White, 21-25° C. (540 days): 1.63 µg/mL | Stability of Plant-Derived Cannabinoid Compounds in AB White, 21-25° C. (570 days): 1.61 µg/mL

From US20260130395A1, “Water Dispersible Botanical Compositions” (Aquila Black Limited, priority 2021, published 2026)
